Measurements as given in patent publication US20150087037A1, “FERMENTATION PROCESS” (LanzaTech New Zealand Limited, priority 2013, published 2015).

How the values were obtained:
[1] = system: C. autoethanogenum DSM23693; assay: Linked two reactor (R1, R2) fermentation system, continuous 2-HIBA addition (Examples 2 and 3); type: cell-based, Clostridium autoethanogenum
Method: (§1) Fermentations with C. autoethanogenum DSM23693 were carried out in 1.5 L bioreactors at 37° C. The media was prepared according to Table 1. To achieve anaerobicity the reactor vessel was sparged with nitrogen. Prior to inoculation, the gas was switched to either steel mill gas containing H2 (3%), N2 (30%), CO (47%) and CO2 (20%) or pure gases (50% CO, 18-40% CO2, with the balance N2). The gas flow was initially set at 67 ml/min/L, increasing to 200 ml/min during mid-exponential phase, while the agitation was increased from 200 rpm to 800. Na2S was dosed into the bioreactor at 0.25 ml/hr. Once the OD600 reached 1.5, the bioreactor was switched to a continuous mode at a dilution rate of 2.0-1.6 d-l and a bacterial dilution rate of 0.9-0.6 d-l. During continuous mode gas and agitation were adjusted to 900-950 rpm and 800-900 ml/min. Na2S was increased to 1.0 ml/hr.
(§2) Liquid culture samples were taken at differing intervals over the duration of the fermentation. These samples were used to establish the optical density at 600 nm (spectrophotometer) and the level of substrates and products (high performance liquid chromatography—HPLC). HPLC was routinely used to quantify the level of acetate, ethanol and 2,3-butanediol. The input and output gas compositions were analysed using a gas chromatographer (GC), allowing measurement of CO and H2 consumption and CO2 production by the culture.
A two reactor system was used to examine the impact of continuous 2-HIBA addition on the metabolite profile. Initially 0.5 g/L/day (4.8 mM/day) 2-HIBA was added to the R2 only, this increased the production of 2,3-BDO but the ratio only dropped to as low as 1.9:1. Continuous addition of 2-HIBA at 0.5 g/L/day (4.8 mM/day) was then added to the R1. […] This would be achieved by improving the concentration in both the R1 and the R2 as the 2-HIBA is transferred from the R1 to the R2 (through liquid flow) along with improved 2,3-BDO concentrations. The 2,3-BDO concentration increased from 5.7 g/L to 14 g/L in the R1 and from 16 g/L to 21 g/L in the R2 (see FIGS. 3 and 4). The ratio of ethanol:2,3-BDO dropped to 1:1 in the R1 and 1.3:1 in the R2 and remained stable for a period of eight days. The improvement of the ratio was achieved as a result of increased 2,3-BDO concentration and a drop in ethanol production.
Over time the ethanol concentration after the 2-HIBA addition improved whilst the concentration of 2,3-BDO remained stable, this had the effect of improving the total alcohol productivity of the system.
The results achieved in Example 2 were repeated with the aim to improve the overall titre of 2,3-BDO. In this experiment the 2-HIBA concentration was increased to 1 g/L/day (9.6 mM/day).

[2] = system: C. autoethanogenum DSM23693; assay: Minimum 2-HIBA concentration needed to impact 2,3-butanediol production, continuous addition through the media (Example 4); type: cell-based, Clostridium autoethanogenum
Method: as §1, §2
In order to understand the minimum concentrations needed to generate the same effect the concentration used was dropped to 0.1 g/L (0.96 mM) in one example and 0.05 g/L (0.48 mM) in another example. Both fermentations had gas increased to minimize acetate and maximize ethanol production. Additional CO2 was blended into the gas stream to maximize 2,3-BDO production, the gas blend used was 50% CO, 35% CO2, 1.5% H2 with N2 balance. The dilution rate and bacterial dilution rate were adjusted to 1.8 day^−1 and 0.8 day^−1 respectively. Once stable data was collected continuous 2-HIBA addition through the media was started and resulting impact on metabolite concentrations observed. In both examples the ratio before the addition of 2-HIBA was about 2:1, and the resulting impact on the Ethanol:2,3-BDO ratio was proportional to the concentration of 2-HIBA used. In the first example where 0.1 g/L (0.96 mM) was used the ratio improved to 1:1 and when the concentration was halved (in the second example) the response was an improvement in the ratio to only 1.5:1.
In two further experiments concentrations from 0.01 g/L to 0.1 g/L (0.096, 0.24, 0.48, 0.72, 0.96 mM) were added and the impact on the metabolites observed. Again the fermentations had gas increased to minimize acetate and maximize ethanol production with CO2 blended into the gas stream to maximize 2,3-BDO production. The dilution rate and bacterial dilution rate were adjusted to 1.8 day^−1 and 0.9 day^−1 respectively. The gas blend used was 42% CO, 35% CO2, 1.5% H2 with N2 balance.

[3] = system: Ketol-acid reductoisomerase IlvC; assay: Inhibition of ketol-acid reductoisomerase; type: biochemical, Clostridium autoethanogenum; details: mode of action proposed from gene expression and BCAA data
From the text: The addition of 2-HIBA impacts the metabolism of Clostridium autoethanogenum. […] In native systems the expression and activity of Acetolcatate synthase IlvBN is down regulated by branched chain amino acid synthesis. The addition of 2-HIBA to the fermentation inhibits Ketol-acid recuctoisomerase IlvC, branch chained amino acid biosynthesis, which results in a decrease in the concentration of valine, isoleucine and leucine. As a result, feedback inhibition of the IlvBN enzyme by valine, isoleucine and leucine is removed. This causes an increase in acetolactate production. An increase in the acetolactate pool leads to an overflow of carbon to 2,3-butanediol. The conversion of acetolactate and acetoin to 2,3-BDO are not rate limited, and conversion to 2,3-BDO freely occurs without the need to further up regulate enzymes responsible for the conversion of acetolactate to acetoin and/or the conversion of acetoin to 2,3-BDO.
Ketol-acid reductoisomerase is inhibited by the presence of 2-HIBA. It is considered that other compounds having similar structural characteristics to 2-HIBA and the substrates that the enzyme works on (acetolactate. 2-oxo-3-hydroxyisovalerate and 2,3-dihydroxy-3-methylbutanoate) would have a similar effect on Ketol acid reductoisomerase. […]

[4] = R1, average across eight days, 0.5 g/L/day 2-HIBA
[5] = R1, gas data average across eight days, 0.5 g/L/day 2-HIBA
[6] = R2, average across eight days, 0.5 g/L/day 2-HIBA
[7] = R2, gas data average across eight days, 0.5 g/L/day 2-HIBA

Question: Which results are given for `CC(C)(O)C(=O)O` [2-HIBA, 2-hydroxyisobutyric acid]?
Answer: impact on CO and hydrogen uptake ([1]; 0.5 g/L/day 2-HIBA, FIGS. 5 and 6): did not negatively impact; 2,3-BDO concentration in R1 ([1]; 0.5 g/L/day (4.8 mM/day) 2-HIBA added to R1, increased from 5.7 g/L): 14 g/L; impact on gas uptake ([1]; 1 g/L/day (9.6 mM/day) 2-HIBA): not negatively impacted; overall 2,3-BDO concentration ([1]; 1 g/L/day (9.6 mM/day) 2-HIBA, highest reached, FIG. 7): 23.9 g/L; Acetate ([1]; R1, average across eight days of stable operation, 0.5 g/L/day 2-HIBA): 6.5 g/L; 2,3 BDO [1, 4]: 13.7 g/L; 2,3 BDO productivity [1, 4]: 27 g/L/day; Biomass [1, 4]: 9.2 g/L; Ethanol [1, 4]: 14.4 g/L; Lactate [1, 4]: 0.0 g/L; CO2 production [1, 5]: 5630 mmol/L; CO uptake [1, 5]: -8830 mmol/L; CO utilisation [1, 5]: 53%; H2 production [1, 5]: 423 mmol/L; 2,3 BDO [1, 6]: 21.3 g/L; 2,3 BDO productivity [1, 6]: 16 g/L/day; Acetate [1, 6]: 7.8 g/L; Biomass [1, 6]: 15.6 g/L; Ethanol [1, 6]: 28.3 g/L; Lactate [1, 6]: 0.0 g/L; CO2 production [1, 7]: 4932 mmol/L; CO uptake [1, 7]: -7930 mmol/L; CO utilisation [1, 7]: 63%; H2 production [1, 7]: 413 mmol/L; lowest concentration that impacts on the production of 2,3-butanediol ([2]; 0.01 g/L to 0.1 g/L tested, 0.01 g/L = 0.096 mM): 0.01 g/L; CO uptake ([2]; Expt 1: 0.96 mM/day HIBA addition, before 9.4): 9.8 mol/L/day; 2,3-BDO ([2]; Expt 1: 0.96 mM/day HIBA addition, before 9.67): 16.35 g/L; Biomass ([2]; Expt 1: 0.96 mM/day HIBA addition, before 10.7): 9.83 g/L; Ethanol ([2]; Expt 1: 0.96 mM/day HIBA addition, before 20.33): 17.05 g/L; CO uptake ([2]; Expt 2: 0.48 mM/day HIBA addition, before 8.2): 8 mol/L/day; 2,3-BDO ([2]; Expt 2: 0.48 mM/day HIBA addition, before 8.42): 10.56 g/L; Biomass ([2]; Expt 2: 0.48 mM/day HIBA addition, before 12.69): 12.14 g/L; Ethanol ([2]; Expt 2: 0.48 mM/day HIBA addition, before 18.73): 15.56 g/L; drop of Ethanol:2,3-BDO ratio ([2]; for every 0.05 g/L (0.48 mM) added to a stable fermentation, data of four examples, FIG. 8): 0.5 units; effect on Ketol-acid reductoisomerase [3]: inhibited
